Data as given in PubChem BioAssay (NCI).
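How tested: cells in 96-well plates exposed to compound for 48 hours at five concentrations. Here, GI50 denotes the concentration required for 50% inhibition of growth. TGI: concentration producing complete growth inhibition.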

Columns and labels:
Test in all cases: inhibition of tumour cell growth, NCI panel, 48 h
COLO 205 colon = tested on: COLO 205 colon
EKVX NSCLC = tested on: EKVX NSCLC
HCC-2998 colon = tested on: HCC-2998 colon
K-562 leukemia = tested on: K-562 leukemia
OVCAR-5 ovarian = tested on: OVCAR-5 ovarian
SF-539 CNS = tested on: SF-539 CNS
SK-MEL-28 melanoma = tested on: SK-MEL-28 melanoma
SW-620 colon = tested on: SW-620 colon
T-47D breast = tested on: T-47D breast
RXF 393 renal = tested on: RXF 393 renal

SMILES | GI50 (COLO 205 colon) | TGI (COLO 205 colon) | GI50 (EKVX NSCLC) | TGI (EKVX NSCLC) | GI50 (HCC-2998 colon) | TGI (HCC-2998 colon) | GI50 (K-562 leukemia) | TGI (K-562 leukemia) | GI50 (OVCAR-5 ovarian) | TGI (OVCAR-5 ovarian) | GI50 (SF-539 CNS) | TGI (SF-539 CNS) | GI50 (SK-MEL-28 melanoma) | TGI (SK-MEL-28 melanoma) | GI50 (SW-620 colon) | TGI (SW-620 colon) | GI50 (T-47D breast) | TGI (T-47D breast) | TGI (RXF 393 renal) | GI50 (RXF 393 renal)
CC[C@H](C)[C@H](NC(=O)c1cnccn1)C(=O)N(C)[C@H](C[C@@H](OC(C)=O)c1nc(C(=O)N[C@@H](Cc2ccccc2)C[C@H](C)C(=O)OC)cs1)C(C)C | 1.17 µM | 4.1 µM | 1.75 µM | > 33.3 µM | 1.35 µM | > 33.3 µM | 0.662 µM | > 33.3 µM | 3.71 µM | > 33.3 µM | 0.779 µM | 2.09 µM | 2.37 µM | > 33.3 µM | 1.28 µM | > 33.3 µM | 2.48 µM | > 33.3 µM |  | 
CSc1nc2c(c(O)c(C)c(=O)n2C2OC(COC(C)=O)C(OC(C)=O)C(OC(C)=O)C2OC(C)=O)c(=O)n1C (centres undefined) |  | > 100 µM |  | > 100 µM |  | > 100 µM |  | > 100 µM |  | > 100 µM |  | > 100 µM |  | > 100 µM |  | > 100 µM |  |  | > 100 µM | 
O=C(C(=O)c1ccc(Cc2ccc(C(=O)C(=O)c3ccccc3)cc2)cc1)c1ccccc1 |  | > 100 µM |  | > 100 µM |  | > 100 µM |  | > 100 µM |  | > 100 µM |  | > 100 µM |  | > 100 µM |  | > 100 µM |  |  | > 100 µM | 
Cc1ccc(C(=O)/C(=C/c2ccc([N+](=O)[O-])cc2)S(=O)Cc2ccccc2)cc1 (centres undefined) | 1.47 µM | 3.16 µM | 1.6 µM | 3.13 µM | 1.78 µM | 3.29 µM | 0.623 µM | 12.4 µM | 1.69 µM | 3.61 µM | 1.69 µM | 3.1 µM | 1.66 µM | 3.15 µM | 0.916 µM | 2.94 µM |  |  | 3 µM | 1.47 µM
O=c1nc(-c2ccccc2)c2c3c(cccn13)CCC2 |  |  |  |  |  | > 100 µM |  | > 100 µM |  | > 100 µM |  | > 100 µM |  | > 100 µM |  | > 100 µM |  |  | > 100 µM | 
O=C1c2ccccc2N2OC3(N4CCCC4)CCCC3C12c1ccccc1 (centres undefined) |  | > 100 µM |  | > 100 µM |  | > 100 µM |  | > 100 µM |  |  |  | > 100 µM |  | > 100 µM |  | > 100 µM |  |  | > 100 µM | 
COc1ccc(-n2nnc3c(sc4ccccc43)c2=O)cc1 | > 100 µM | > 100 µM |  |  | > 100 µM | > 100 µM | > 100 µM | > 100 µM |  |  |  |  | > 100 µM | > 100 µM | > 100 µM | > 100 µM |  |  |  | 
CC(=O)N(CCN)CCN |  | > 10 µM |  | > 100 µM |  | > 10 µM |  | > 10 µM |  |  |  |  |  | > 10 µM |  | > 10 µM |  |  | > 10 µM | 
COc1ccc(C(C2=C(C)C(=O)c3ccccc3C2=O)c2ccc(C(C)C)cc(=O)c2O)cc1 (centres undefined) |  | 20.7 µM |  |  |  |  |  | > 100 µM |  | 7.53 µM |  | 5.8 µM |  |  |  | > 100 µM |  |  |  | 
Fc1cccc(Cl)c1C1SCc2nc3ccccc3n21 (centres undefined) |  | 47.3 µM |  | > 100 µM |  | > 100 µM |  | > 100 µM |  | > 100 µM |  | 44.4 µM |  |  |  | > 100 µM |  |  | > 100 µM | 
